The test has as its target PRMT5/MEP50 (Homo sapiens (Human), UniProt O14744). Description: PRMT5 Biochemical Assay (PRMT5/MEP50 enzyme assay on peptide substrate, 3H-SAM Flashplate). The settings on record: PRMT5 biochemical assay; read-out: Biochemical IC50. From the text:
S-adenosylmethionine (SAM), S-adenosylhomocysteine (SAH), bicine, KCl, Tween20, dimethylsulfoxide (DMSO), bovine skin gelatin (BSG), and Tris(2-carboxyethyl)phosphine hydrochloride solution (TCEP) were purchased from Sigma-Aldrich at the highest level of purity possible. ^3H-SAM was purchase from American Radiolabeled Chemicals with a specific activity of 80 Ci/mmol. 384-well streptavidin Flashplates were purchased from PerkinElmer.
Peptide representative of human histone H4 residues 1-15 was synthesized with a C-terminal linker-affinity tag motif and a C-terminal amide cap by 21st Century Biochemicals. […] The sequence was Ac-[…][K-Biot]-amide (SEQ ID NO.:3).
Full-length human MEP50 (NM_024102) clone was amplified from a human testis cDNA library incorporating a 5′ sequence encoding a 6-histidine tag (MHHHHHH)(SEQ ID NO.:5) fused directly to Arg 2 of MEP50. The amplified genes were sublconed into pENTR/D/TEV (Life Technologies) and subsequently transferred by Gateway™ attL×attR recombination to pDEST8 baculvirus expression vector (Life Technologies).
Recombinant baculovirus and Baculovirus-Infected Insect Cells (BIIC) were generated according to Bac-to-Bac kit instructions (Life Technologies) and Wasilko, 2006, respectively. Protein over-expression was accomplished by infecting exponentially growing Spodoptera frugiperda (SF9) cell culture at 1.2×10^6 cell/ml with a 5000 fold dilution of BIIC stock. Infections were carried out at 27° C. for 72 hours, harvested by centrifugation, and stored at −80° C. for purification.
Flag-PRMT5/6His-MeP50 was eluted with 300 mM Imidazole in the same buffer. […] Reference: Wasilko, D. J. and S. E. Lee: “TIPS: titerless infected-cells preservation and scale-up” Bioprocess J., 5 (2006), pp. 29-32.
General Procedure for PRMT5/MEP50 Enzyme Assays on Peptide Substrates.
The assays were all performed in a buffer consisting of 20 mM Bicine (pH=7.6), 1 mM TCEP, 0.005% BSG, and 0.002% Tween20, prepared on the day of use. Compounds in 100% DMSO (1 ul) were spotted into a polypropylene 384-well V-bottom plates (Greiner) using a Platemate Plus outfitted with a 384-channel head (Thermo Scientific). DMSO (1 ul) was added to Columns 11, 12, 23, 24, rows A-H for the maximum signal control and 1 ul of SAH, a known product and inhibitor of PRMT5/MEP50, was added to columns 11, 12, 23, 24, rows I-P for the minimum signal control. A cocktail (40 ul) containing the PRMT5/MEP50 enzyme and the peptide was added by Multidrop Combi (Thermo-Fisher). The compounds were allowed to incubate with PRMT5/MEP50 for 30 min at 25 degrees Celsius, then a cocktail (10 ul) containing ^3H-SAM was added to initiate the reaction (final volume=51 ul).

Bounds are passed on as bounds.

As usually defined, the IC50 is the concentration that gives 50% inhibition.

Sequence of PRMT5/MEP50 (O14744 other isoform, or with tags, fused parts or gaps): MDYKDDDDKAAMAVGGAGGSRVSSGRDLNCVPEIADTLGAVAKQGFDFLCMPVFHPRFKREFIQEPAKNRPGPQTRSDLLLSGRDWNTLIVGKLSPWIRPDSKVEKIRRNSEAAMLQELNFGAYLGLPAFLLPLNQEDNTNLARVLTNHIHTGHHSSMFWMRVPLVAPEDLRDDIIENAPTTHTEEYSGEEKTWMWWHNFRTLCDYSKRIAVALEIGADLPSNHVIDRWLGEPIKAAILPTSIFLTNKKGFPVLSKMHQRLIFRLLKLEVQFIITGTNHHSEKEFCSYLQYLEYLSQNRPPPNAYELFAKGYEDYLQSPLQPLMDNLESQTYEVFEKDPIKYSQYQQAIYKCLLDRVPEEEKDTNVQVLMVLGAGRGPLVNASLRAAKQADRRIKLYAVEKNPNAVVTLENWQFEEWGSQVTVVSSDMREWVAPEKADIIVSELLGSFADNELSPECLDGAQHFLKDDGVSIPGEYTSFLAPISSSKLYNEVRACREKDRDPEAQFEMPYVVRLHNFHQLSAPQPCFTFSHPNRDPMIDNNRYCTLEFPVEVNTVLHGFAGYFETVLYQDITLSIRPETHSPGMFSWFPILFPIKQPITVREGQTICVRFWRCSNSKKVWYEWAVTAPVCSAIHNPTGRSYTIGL
Sequence of PRMT5/MEP50 (Q9BQA1 other isoform, or with tags, fused parts or gaps partner): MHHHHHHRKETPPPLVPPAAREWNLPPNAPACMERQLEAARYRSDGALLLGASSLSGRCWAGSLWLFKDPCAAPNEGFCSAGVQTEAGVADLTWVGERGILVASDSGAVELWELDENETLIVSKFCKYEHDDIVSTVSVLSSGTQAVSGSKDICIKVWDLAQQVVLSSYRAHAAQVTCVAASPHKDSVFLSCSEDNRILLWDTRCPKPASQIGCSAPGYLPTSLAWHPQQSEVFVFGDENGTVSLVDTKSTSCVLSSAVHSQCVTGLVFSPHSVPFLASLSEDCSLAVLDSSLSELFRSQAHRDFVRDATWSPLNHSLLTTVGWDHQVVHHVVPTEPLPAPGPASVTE

`O=C(COc1ccccc1C1CCNCC1)NCC(O)CN1CCc2ccccc2C1` (stereo not shown) [Compound 103]: the IC50 was under 0.1 µM.

On to `CN(C)c1ccc2cccc(OCC(=O)NC[C@@H](O)CN3CCc4ccccc4C3)c2n1` [Compound 105], for which the 50% inhibitory concentration (IC50) is under 0.1 µM. The same measure for `O=C(COc1ccccc1S(=O)(=O)N1CCNCC1)NCC(O)CN1CCc2ccccc2C1` (stereo not shown) [Compound 107]: under 0.1 µM. As to `CN1CCN(S(=O)(=O)c2ccccc2OCC(=O)NCC(O)CN2CCc3ccccc3C2)CC1` (stereo not shown) [Compound 108], the half-inhibitory concentration (IC50) was under 0.1 µM.

As for `CN(C)S(=O)(=O)c1ccccc1OCC(=O)NCC(O)CN1CCc2ccccc2C1` (stereo not shown) [Compound 109], the IC50 was under 0.1 µM. For the compound `O=C(COc1ccccc1S(=O)(=O)N1CCCC1)NCC(O)CN1CCc2ccccc2C1` (stereo not shown) [Compound 110], the IC50 was under 0.1 µM. The same measure for `O=C(COc1ccccc1S(=O)(=O)N1CCC(O)C1)NCC(O)CN1CCc2ccccc2C1` (stereo not shown) [Compound 111]: under 0.1 µM; for `O=C(COc1cccc2c1CNCC2)NCC(O)CN1CCc2ccccc2C1` (stereo not shown) [Compound 119]: under 0.1 µM; for `CNS(=O)(=O)c1ccccc1OCC(=O)NCC(O)CN1CCc2ccccc2C1` (stereo not shown) [Compound 123]: under 0.1 µM.

In the case of `CC(Oc1ccccc1S(N)(=O)=O)C(=O)NCC(O)CN1CCc2ccccc2C1` (stereo not shown) [Compound 126], the half-inhibitory concentration (IC50) was over 50 µM.

In the case of `CC(=O)Nc1cccnc1OCC(=O)NCC(O)CN1CCc2ccccc2C1` (stereo not shown) [Compound 128], the IC50 is over 50 µM.

Turning to `CN1CCCC(c2ccccc2OCC(=O)NCC(O)CN2CCc3ccccc3C2)C1` (stereo not shown) [Compound 130], the IC50 is under 0.1 µM. On to `CN(C)c1cccnc1OCC(=O)NCC(O)CN1CCc2ccccc2C1` (stereo not shown) [Compound 133], for which the IC50 was over 10 µM. For `CS(=O)(=O)Nc1ncccc1OCC(=O)NCC(O)CN1CCc2ccccc2C1` (stereo not shown) [Compound 139], the half-maximal inhibitory concentration (IC50) is over 10 µM. Consider `O=C(COc1cccc2cccnc12)NCC(O)CN1Cc2ccccc2C(F)(F)C1` (stereo not shown) [Compound 144], for which the 50% inhibitory concentration (IC50) was over 10 µM. The same measure for `Cc1cn(C)c2cccc(OCC(=O)NCC(O)CN3CCc4ccccc4C3)c12` (stereo not shown) [Compound 146]: under 0.1 µM; for `CC(=O)Nc1ncccc1OCC(=O)NCC(O)CN1CCc2ccccc2C1` (stereo not shown) [Compound 147]: over 10 µM; for `CC(=O)Nc1cncc(OCC(=O)NCC(O)CN2CCc3ccccc3C2)c1` (stereo not shown) [Compound 148]: over 10 µM. With `O=C(COc1ccccc1S(=O)(=O)N1CCOCC1)NCC(O)CN1CCc2ccccc2C1` (stereo not shown) [Compound 149] the figure was under 0.1 µM; with `Cn1cnc(-c2ccccc2OCC(=O)NCC(O)CN2CCc3ccccc3C2)c1` (stereo not shown) [Compound 153], under 0.1 µM.

Regarding `O=C(COc1cccc2cnncc12)NCC(O)CN1CCc2ccccc2C1` (stereo not shown) [Compound 154], the IC50 lay in the range of 1 to 10 µM. In the case of `CN(c1ccccc1OCC(=O)NCC(O)CN1CCc2ccccc2C1)S(C)(=O)=O` (stereo not shown) [Compound 155], the half-maximal inhibitory concentration (IC50) is under 0.1 µM. On to `Cn1cncc1-c1ccccc1OCC(=O)NCC(O)CN1CCc2ccccc2C1` (stereo not shown) [Compound 156], for which the IC50 was 1 to 10 µM. Regarding `CC(Oc1ccccc1NS(C)(=O)=O)C(=O)NCC(O)CN1CCc2ccccc2C1` (stereo not shown) [Compound 157], the IC50 fell in the range of 1 to 10 µM. In the case of `Cc1nn(C)c2cccc(OCC(=O)NCC(O)CN3CCc4ccccc4C3)c12` (stereo not shown) [Compound 158], the 50% inhibitory concentration (IC50) was under 0.1 µM.

For the compound `Cn1ncc2ccc(OCC(=O)NC[C@H](O)CN3CCc4ccccc4C3)cc21` [Compound 159], the IC50 was under 0.1 µM.

With `Cn1ncc2ccc(OCC(=O)NC[C@@H](O)CN3CCc4ccccc4C3)cc21` [Compound 160], the IC50 lay in the range of 0.101 to 1 µM.

Take `O=C(COc1cncc(C(=O)N2CCOCC2)c1)NCC(O)CN1CCc2ccccc2C1` (stereo not shown) [Compound 161]: the IC50 lay in the range of 0.101 to 1 µM.

With `CC(=O)Nc1ccncc1OCC(=O)NCC(O)CN1CCc2ccccc2C1` (stereo not shown) [Compound 162], the IC50 lay within 1 to 10 µM. The same measure for `Cc1cn(C)c2cccc(OCC(=O)NC[C@H](O)CN3CCc4ccccc4C3)c12` [Compound 163]: under 0.1 µM. Take `Cc1cn(C)c2cccc(OCC(=O)NC[C@@H](O)CN3CCc4ccccc4C3)c12` [Compound 164]: the IC50 is under 0.1 µM.
